Experimental data reported in publication PMC7960226 (Science (New York, N.Y.), 2020).
Where two headings read alike, the source gives them in different places.

What was measured:
[1] = biological target: T1, ADRA1A (Homo sapiens, UniProt P35348); conditions: Table 2, ADRA1A; accurate to ±20%
T1 sequence (P35348 1-466): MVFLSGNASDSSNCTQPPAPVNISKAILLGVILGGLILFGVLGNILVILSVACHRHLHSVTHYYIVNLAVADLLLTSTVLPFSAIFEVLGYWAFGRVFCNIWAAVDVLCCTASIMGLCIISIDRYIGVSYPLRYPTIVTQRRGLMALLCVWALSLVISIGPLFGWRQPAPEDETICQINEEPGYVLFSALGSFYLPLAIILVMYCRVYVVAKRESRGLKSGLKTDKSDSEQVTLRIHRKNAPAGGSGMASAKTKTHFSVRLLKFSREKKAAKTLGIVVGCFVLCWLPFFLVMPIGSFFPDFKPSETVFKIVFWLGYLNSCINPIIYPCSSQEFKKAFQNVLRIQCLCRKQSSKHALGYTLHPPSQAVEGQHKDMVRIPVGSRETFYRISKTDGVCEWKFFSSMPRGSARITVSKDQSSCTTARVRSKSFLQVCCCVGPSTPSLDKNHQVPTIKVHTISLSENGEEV

[2] = biological target: DRD1 (Homo sapiens, UniProt P21728); format: binding; conditions: Table 2, DRD1; accurate to ±20%
[3] = biological target: ADORA3 (Homo sapiens, UniProt P0DMS8); conditions: Table 2, ADORA3; accurate to ±20%
[4] = biological target: T2, SLCO2B1 (Homo sapiens, UniProt O94956); assay: in vitro transporter inhibition, SLCO2B1; format: biochemical; conditions: Table 2, SLCO2B1; accurate to ±20%
T2 sequence (O94956 1-709): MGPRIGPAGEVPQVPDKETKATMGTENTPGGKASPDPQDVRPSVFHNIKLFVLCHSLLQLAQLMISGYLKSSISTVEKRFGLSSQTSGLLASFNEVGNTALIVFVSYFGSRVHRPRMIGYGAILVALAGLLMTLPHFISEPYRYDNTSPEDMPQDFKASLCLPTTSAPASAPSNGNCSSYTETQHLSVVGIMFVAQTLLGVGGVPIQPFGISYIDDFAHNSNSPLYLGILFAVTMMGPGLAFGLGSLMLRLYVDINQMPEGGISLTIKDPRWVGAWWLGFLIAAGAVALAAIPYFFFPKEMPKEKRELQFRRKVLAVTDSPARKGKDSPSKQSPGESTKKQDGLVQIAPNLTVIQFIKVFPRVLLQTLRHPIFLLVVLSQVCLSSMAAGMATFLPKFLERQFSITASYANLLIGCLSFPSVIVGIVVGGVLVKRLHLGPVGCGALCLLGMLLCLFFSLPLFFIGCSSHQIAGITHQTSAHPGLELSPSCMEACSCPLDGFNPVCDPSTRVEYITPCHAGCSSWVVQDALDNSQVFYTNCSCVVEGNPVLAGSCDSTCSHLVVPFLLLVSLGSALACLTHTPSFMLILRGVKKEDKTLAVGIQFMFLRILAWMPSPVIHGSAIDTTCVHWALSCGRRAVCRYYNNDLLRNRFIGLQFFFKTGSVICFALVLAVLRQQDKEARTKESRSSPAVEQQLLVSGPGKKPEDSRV

[5] = biological target: CHRM2 (Homo sapiens, UniProt P08172); conditions: Table 2, CHRM2; accurate to ±20%
[6] = biological target: PDE4D (Homo sapiens, UniProt Q08499); assay: in vitro assay, PDE4D; format: biochemical; conditions: Table 2, PDE4D; accurate to ±20%
[7] = biological target: OPRM1 (Homo sapiens, UniProt P35372); assay: safety panel assay, OPRM1; format: binding; conditions: Table 2, OPRM1 (OPRM); accurate to ±20%
[8] = biological target: SLC22A6 (Homo sapiens, UniProt Q4U2R8); assay: in vitro transporter assay, SLC22A6; conditions: Table 1, predicted target SLC22A6
[9] = biological target: PDE3A (Homo sapiens, UniProt Q14432); assay: safety panel assay, PDE3A; format: biochemical; conditions: Table 2, PDE3A; accurate to ±20%
[10] = biological target: PRMT1 (Homo sapiens, UniProt Q99873); conditions: Table 1, predicted target PRMT1
[11] = biological target: GABRA1 (Homo sapiens, UniProt P14867); assay: safety panel assay, GABRA1; format: binding; conditions: Table 2, GABRA1; accurate to ±20%
[12] = tested on: BioMAP Diversity PLUS panel; assay: BioMAP Diversity PLUS panel of cell-based systems
[13] = biological target: ACHE (Homo sapiens, UniProt P22303); conditions: Table 2, ACHE; accurate to ±20%
[14] = biological target: KCNH2 (Homo sapiens, UniProt Q12809)
[15] = biological target: HRH3 (Homo sapiens, UniProt Q9Y5N1); conditions: Table 2, HRH3; accurate to ±20%
[16] = biological target: SLC18A2 (Homo sapiens, UniProt Q05940); assay: transporter inhibition, SLC18A2; format: biochemical; conditions: Table 2, SLC18A2; accurate to ±20%
[17] = biological target: T3, PTGS2 (Homo sapiens, UniProt P35354); assay: safety panel assay, PTGS2; format: biochemical; conditions: Table 2, PTGS2; accurate to ±20%
T3 sequence (P35354 18-604): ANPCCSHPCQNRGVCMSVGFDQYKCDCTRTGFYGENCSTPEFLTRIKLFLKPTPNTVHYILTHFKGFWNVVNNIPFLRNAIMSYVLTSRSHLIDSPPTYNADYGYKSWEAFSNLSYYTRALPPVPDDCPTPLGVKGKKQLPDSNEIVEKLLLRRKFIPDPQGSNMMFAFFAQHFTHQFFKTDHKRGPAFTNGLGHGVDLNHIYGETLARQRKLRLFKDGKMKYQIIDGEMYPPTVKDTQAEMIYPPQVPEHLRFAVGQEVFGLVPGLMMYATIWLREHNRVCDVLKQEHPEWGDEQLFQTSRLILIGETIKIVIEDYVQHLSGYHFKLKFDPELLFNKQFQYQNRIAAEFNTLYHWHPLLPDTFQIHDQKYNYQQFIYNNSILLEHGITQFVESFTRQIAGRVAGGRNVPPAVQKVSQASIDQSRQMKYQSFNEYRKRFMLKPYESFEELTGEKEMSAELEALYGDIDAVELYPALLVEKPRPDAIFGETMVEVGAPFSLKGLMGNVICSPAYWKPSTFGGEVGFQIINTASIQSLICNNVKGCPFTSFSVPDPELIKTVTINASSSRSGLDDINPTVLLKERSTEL

[18] = biological target: PTGS1 (Homo sapiens, UniProt P23219); conditions: Table 2, PTGS1; accurate to ±20%
[19] = biological target: SLC6A3 (Homo sapiens, UniProt Q01959); assay: safety panel assay, SLC6A3; format: biochemical; conditions: Table 2, SLC6A3; accurate to ±20%
[20] = biological target: T4, CHRM1 (Homo sapiens, UniProt P11229); conditions: Table 2, CHRM1; an agonist effect was observed; accurate to ±20%
T4 sequence (P11229 1-460): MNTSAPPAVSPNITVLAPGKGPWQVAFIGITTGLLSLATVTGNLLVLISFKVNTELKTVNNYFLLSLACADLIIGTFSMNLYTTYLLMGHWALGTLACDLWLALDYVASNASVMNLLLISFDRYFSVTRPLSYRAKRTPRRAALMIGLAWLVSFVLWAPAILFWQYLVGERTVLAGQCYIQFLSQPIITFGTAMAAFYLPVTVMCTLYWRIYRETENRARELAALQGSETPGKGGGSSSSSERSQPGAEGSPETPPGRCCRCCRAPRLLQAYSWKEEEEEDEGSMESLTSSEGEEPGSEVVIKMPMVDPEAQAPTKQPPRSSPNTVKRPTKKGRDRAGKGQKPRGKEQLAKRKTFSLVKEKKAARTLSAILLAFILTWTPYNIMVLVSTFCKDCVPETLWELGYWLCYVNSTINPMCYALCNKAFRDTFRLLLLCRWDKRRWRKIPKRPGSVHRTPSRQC

[21] = biological target: SLC6A2 (Homo sapiens, UniProt P23975); conditions: Table 2, SLC6A2; accurate to ±20%
[22] = biological target: DRD3 (Homo sapiens, UniProt P35462); conditions: Table 2, DRD3; accurate to ±20%
[23] = biological target: TY3H (Homo sapiens, UniProt P07101); assay: in vitro assay, TY3H; format: biochemical; conditions: Table 2, TY3H; accurate to ±20%
[24] = biological target: ALOX5 (Homo sapiens, UniProt P09917); assay: in vitro assay, ALOX5; format: biochemical
[25] = Pharmacokinetics in rats after i.v. and oral administration; conditions: for Cmax: 10 mg/kg, oral 10 mg/kg
[26] = Madin-Darby canine kidney permeability assay; conditions: dog, MDCK
[27] = biological target: KDM4C (Homo sapiens, UniProt Q9H3R0); assay: in vitro assay, KDM4C; format: biochemical; conditions: Table 2, KDM4C; accurate to ±20%
[28] = biological target: FTO (Homo sapiens, UniProt Q9C0B1); assay: in vitro assay, FTO; format: biochemical; conditions: Table 2, FTO; accurate to ±20%
[29] = biological target: COMT (Homo sapiens, UniProt P21964); assay: in vitro inhibition of COMT
Chain of COMT (P21964 whole entry): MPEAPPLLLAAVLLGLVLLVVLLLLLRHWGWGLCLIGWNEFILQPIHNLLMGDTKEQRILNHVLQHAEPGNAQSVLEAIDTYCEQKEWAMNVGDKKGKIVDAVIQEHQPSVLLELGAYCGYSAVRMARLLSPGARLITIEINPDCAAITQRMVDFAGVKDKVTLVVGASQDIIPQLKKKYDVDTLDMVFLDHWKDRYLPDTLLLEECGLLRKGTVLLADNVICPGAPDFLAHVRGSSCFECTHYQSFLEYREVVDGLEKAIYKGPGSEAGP

Chain of DRD1 (P21728 whole entry, species assumed): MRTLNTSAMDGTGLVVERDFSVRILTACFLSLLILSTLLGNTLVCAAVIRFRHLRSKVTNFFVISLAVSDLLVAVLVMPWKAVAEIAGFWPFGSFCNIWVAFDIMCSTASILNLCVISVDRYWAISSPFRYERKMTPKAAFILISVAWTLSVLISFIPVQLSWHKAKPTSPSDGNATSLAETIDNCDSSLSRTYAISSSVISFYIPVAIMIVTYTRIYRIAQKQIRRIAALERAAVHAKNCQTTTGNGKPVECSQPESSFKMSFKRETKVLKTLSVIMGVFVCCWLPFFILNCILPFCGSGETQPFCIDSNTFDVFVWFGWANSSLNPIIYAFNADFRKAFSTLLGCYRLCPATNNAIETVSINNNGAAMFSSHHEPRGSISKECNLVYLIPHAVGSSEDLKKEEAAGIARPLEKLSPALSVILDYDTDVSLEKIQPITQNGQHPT
Chain of ALOX5 (P09917 whole entry, species assumed): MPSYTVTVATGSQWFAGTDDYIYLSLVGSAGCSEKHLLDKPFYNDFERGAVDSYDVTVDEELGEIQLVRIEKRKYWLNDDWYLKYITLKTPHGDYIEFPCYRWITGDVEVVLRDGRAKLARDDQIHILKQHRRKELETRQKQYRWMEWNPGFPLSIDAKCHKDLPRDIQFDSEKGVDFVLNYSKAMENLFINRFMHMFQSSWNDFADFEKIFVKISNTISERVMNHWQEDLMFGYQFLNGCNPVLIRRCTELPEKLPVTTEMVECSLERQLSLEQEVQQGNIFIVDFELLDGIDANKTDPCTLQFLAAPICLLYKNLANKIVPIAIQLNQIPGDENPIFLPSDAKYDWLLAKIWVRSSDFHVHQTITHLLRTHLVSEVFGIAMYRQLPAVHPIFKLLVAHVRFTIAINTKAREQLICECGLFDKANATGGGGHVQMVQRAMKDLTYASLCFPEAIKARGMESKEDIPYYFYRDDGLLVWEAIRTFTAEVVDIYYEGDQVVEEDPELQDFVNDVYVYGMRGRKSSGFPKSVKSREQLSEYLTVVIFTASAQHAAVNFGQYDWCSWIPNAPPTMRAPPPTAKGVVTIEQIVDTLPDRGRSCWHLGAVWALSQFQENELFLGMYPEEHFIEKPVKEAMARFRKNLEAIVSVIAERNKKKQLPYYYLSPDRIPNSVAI
Chain of SLC18A2 (Q05940 whole entry, species assumed): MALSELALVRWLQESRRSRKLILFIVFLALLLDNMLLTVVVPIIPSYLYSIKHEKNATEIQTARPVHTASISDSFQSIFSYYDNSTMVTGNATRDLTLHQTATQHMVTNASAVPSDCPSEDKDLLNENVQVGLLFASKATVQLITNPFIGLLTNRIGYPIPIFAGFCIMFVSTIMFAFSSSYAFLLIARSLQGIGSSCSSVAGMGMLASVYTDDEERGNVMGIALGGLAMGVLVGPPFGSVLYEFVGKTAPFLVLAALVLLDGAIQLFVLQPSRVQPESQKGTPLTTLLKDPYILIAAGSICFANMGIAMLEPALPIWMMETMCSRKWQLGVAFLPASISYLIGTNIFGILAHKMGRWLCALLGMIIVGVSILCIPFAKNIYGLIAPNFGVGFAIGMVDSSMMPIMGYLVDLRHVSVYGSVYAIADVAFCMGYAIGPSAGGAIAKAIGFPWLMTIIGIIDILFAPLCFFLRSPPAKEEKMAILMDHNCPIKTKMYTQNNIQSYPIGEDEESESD
Chain of OPRM1 (P35372 whole entry, species assumed): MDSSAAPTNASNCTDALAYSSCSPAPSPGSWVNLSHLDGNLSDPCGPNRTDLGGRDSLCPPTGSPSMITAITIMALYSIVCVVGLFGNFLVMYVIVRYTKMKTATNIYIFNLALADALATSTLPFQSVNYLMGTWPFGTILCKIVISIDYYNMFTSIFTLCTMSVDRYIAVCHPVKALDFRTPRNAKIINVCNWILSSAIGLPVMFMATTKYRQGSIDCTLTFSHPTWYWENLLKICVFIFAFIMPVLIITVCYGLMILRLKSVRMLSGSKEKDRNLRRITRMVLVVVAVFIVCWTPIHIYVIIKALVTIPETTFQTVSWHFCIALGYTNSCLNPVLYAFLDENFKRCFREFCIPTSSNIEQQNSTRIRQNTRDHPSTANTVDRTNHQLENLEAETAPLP
Chain of CHRM2 (P08172 whole entry, species assumed): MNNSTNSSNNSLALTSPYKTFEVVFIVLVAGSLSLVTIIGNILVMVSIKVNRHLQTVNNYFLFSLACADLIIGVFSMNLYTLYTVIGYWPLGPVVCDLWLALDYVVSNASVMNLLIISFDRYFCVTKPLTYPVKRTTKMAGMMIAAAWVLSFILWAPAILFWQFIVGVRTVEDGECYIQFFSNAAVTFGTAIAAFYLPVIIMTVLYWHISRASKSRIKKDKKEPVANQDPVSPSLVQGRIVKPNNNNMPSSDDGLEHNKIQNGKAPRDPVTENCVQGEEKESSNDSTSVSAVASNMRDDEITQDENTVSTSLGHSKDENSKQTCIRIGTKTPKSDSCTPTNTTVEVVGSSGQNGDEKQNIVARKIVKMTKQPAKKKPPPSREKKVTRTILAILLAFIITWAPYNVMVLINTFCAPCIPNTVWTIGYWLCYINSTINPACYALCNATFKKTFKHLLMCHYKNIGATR
Chain of KCNH2 (Q12809 whole entry): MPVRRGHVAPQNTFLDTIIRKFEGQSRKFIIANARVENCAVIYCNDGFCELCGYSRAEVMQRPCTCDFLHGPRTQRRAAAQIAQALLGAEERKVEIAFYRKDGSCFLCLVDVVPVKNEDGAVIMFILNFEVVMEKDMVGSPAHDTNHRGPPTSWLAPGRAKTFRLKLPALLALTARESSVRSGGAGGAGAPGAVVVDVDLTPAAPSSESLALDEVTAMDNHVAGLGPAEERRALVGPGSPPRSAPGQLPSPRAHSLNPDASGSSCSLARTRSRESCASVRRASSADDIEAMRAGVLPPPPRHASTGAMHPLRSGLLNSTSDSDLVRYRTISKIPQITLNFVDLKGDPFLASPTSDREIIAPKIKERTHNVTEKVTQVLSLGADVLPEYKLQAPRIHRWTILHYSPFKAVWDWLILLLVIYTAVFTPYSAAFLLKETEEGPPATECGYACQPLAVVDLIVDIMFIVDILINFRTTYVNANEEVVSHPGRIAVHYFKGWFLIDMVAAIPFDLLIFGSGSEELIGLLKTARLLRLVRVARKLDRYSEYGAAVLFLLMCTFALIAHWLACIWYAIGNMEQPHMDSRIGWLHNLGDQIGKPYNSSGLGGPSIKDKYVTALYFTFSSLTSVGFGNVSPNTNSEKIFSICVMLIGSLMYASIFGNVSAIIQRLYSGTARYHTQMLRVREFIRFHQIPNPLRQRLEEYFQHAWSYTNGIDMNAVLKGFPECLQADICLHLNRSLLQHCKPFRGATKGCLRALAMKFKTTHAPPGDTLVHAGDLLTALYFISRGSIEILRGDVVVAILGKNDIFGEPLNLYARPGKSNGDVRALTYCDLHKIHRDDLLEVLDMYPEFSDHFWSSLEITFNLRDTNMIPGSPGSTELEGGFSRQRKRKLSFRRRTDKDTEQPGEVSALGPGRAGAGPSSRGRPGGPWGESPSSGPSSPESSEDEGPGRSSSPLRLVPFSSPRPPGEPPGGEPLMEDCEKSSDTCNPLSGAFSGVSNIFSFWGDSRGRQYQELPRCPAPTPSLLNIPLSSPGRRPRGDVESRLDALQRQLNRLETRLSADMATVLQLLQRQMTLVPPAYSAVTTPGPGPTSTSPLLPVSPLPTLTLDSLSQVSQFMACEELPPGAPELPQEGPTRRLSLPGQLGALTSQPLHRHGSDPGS
Chain of HRH3 (Q9Y5N1 whole entry, species assumed): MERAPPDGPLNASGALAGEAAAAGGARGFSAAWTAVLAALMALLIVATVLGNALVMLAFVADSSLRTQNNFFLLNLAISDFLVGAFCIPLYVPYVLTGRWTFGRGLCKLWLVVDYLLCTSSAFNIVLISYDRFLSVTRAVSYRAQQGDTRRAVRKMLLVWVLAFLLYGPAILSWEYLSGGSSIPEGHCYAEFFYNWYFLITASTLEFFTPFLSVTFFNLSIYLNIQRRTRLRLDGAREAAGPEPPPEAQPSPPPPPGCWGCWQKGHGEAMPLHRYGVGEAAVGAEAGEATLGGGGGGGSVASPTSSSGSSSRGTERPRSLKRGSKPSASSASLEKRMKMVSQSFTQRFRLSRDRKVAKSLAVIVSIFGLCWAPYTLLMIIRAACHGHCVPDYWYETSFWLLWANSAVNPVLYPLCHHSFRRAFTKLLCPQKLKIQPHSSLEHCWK
Chain of ACHE (P22303 32-614): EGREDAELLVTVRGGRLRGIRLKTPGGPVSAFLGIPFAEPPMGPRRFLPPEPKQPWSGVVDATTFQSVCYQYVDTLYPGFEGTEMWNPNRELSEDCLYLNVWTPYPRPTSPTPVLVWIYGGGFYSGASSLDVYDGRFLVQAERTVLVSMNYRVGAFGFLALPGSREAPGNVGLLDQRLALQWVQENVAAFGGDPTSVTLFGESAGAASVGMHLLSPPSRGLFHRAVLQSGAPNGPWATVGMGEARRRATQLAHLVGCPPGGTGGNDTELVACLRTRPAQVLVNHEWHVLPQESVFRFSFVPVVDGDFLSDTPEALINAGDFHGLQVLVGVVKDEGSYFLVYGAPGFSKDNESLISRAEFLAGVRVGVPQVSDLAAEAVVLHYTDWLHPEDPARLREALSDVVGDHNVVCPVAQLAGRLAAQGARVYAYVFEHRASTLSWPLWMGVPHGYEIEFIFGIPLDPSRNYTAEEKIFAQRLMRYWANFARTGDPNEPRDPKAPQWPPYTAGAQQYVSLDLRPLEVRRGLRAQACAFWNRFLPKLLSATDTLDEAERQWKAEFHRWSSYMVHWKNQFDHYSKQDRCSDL

O=C([O-])c1c(Cl)c(Cl)c(Cl)c(Cl)c1-c1c2cc(Br)c(=O)c(Br)c-2oc2c(Br)c([O-])c(Br)cc12.[Na+].[Na+] [D&C Red No. 28, Phloxine B]
Ki/IC50 Or EC50 [1]: 480 nM
Ki/IC50 Or EC50 [2]: 590 nM
Ki/IC50 Or EC50 [3]: 480 nM
Ki/IC50 Or EC50 [4]: 600 nM
Ki/IC50 Or EC50 [5]: 680 nM
Ki/IC50 Or EC50 [6]: 940 nM
Ki/IC50 Or EC50 [7]: 820 nM
Ki/IC50 [8]: 64 nM
Ki/IC50 Or EC50 [9]: 130 nM
Ki/IC50 [10]: 700 nM

O=C([O-])C1=NN(c2ccc(S(=O)(=O)[O-])cc2)C(=O)C1N=Nc1ccc(S(=O)(=O)[O-])cc1.[Na+].[Na+].[Na+] (stereo not drawn) [FD&C Yellow No. 5 (Tartrazine), Tartrazine]
Ki/IC50 Or EC50 [2]: 23000 nM
Ki/IC50 Or EC50 [11]: 13000 nM
Ki/IC50 Or EC50 [7]: 16000 nM
activity in the BioMAP cell-based systems ([12]; 1.1, 3.3, 10, 30 μM): no measurable activity

CN(C)c1ccc2nc3ccc(=[N+](C)C)cc-3sc2c1 [Methylene Blue]
Ki/IC50 Or EC50 [5]: 190 nM
Ki/IC50 Or EC50 [13]: 90 nM
Ki/IC50 Or EC50 ([14]; human): 0.090 0.19 0.88 27.5 μM
Ki/IC50 Or EC50 [15]: 880 nM

CCCCCCCC/C=C\CCCCCCCC(=O)O [Oleic acid]
Ki/IC50 Or EC50 [16]: 4700 nM
Ki/IC50 Or EC50 [17]: 3500 nM
Ki/IC50 Or EC50 [18]: 6700 nM

CC(=O)[O][Hg][c]1ccccc1 [Phenylmercuric acetate]
Ki/IC50 Or EC50 [2]: 2200 nM
Ki/IC50 Or EC50 [19]: 1800 nM
Ki/IC50 Or EC50 [16]: 360 nM
Ki/IC50 Or EC50 [20]: 8100 nM
Ki/IC50 Or EC50 [21]: 1700 nM
Ki/IC50 Or EC50 [22]: 24 nM
Ki/IC50 Or EC50 ([14]; Table 2, KCNH2, accurate to ±20%): 6.2 µM

CCCOC(=O)c1cc(O)c(O)c(O)c1 [Propyl gallate]
Ki/IC50 Or EC50 [23]: 1900 nM
IC50 [24]: 430 nM
Ki/IC50 Or EC50 ([24]; Table 2, ALOX5, accurate to ±20%): 430 nM
half-life ([25]; rat, blood, iv, 1 mg/kg): 4.9 h
Cmax ([25]; rat, blood, po, Oral Cmax, rats): 5 nM
i.v. AUC 0–24 (d.n.) ([25]; rats, i.v. 1 mg/kg, dose normalized): 6908 nM-hour
Cmax ([25]; read-out: Oral Cmax, rats, blood): < 8.9 nM
Ki/IC50 Or EC50 [17]: 7200 nM
effect on proliferation ([12]; B and T cells, coronary artery smooth muscle cells, endothelial cells, fibroblasts, at 10 or 30 μM): antiproliferative
Papp [26]: 11.7 ×10⁻⁶ cm/s
Ki/IC50 Or EC50 [27]: 39000 nM
Ki/IC50 Or EC50 [28]: 3000 nM
IC50 [29]: 15 nM
Ki/IC50 ([29]; Table 1, predicted target COMT): 15 nM
